In publication PMC12260939, “Radiosynthesis and Evaluation of ^11C‑Labeled Imidazolyl Pyrimidine Derivatives for Positron Emission Tomography Imaging of Glycogen Synthase Kinase‑3” (ACS Pharmacology & Translational Science, 2025):
In brackets after ≈: the same amount, converted by molar mass.

Key:
CYP3A4 = CYP3A4 (Homo sapiens, UniProt P08684); test: CYP3A4 inhibition; format: in vitro ADME
Experimental: (§1) The inhibitory properties of 13a–13e on four cytochrome P450 isoforms (CYP1A2, CYP2C9, CYP2D6 and CYP3A4) were greater than 2 μM.

CYP2C9 = CYP2C9 (Homo sapiens, UniProt P11712); test: CYP2C9 inhibition; format: in vitro ADME
CYP2C9, sequence (P11712 whole entry, species assumed): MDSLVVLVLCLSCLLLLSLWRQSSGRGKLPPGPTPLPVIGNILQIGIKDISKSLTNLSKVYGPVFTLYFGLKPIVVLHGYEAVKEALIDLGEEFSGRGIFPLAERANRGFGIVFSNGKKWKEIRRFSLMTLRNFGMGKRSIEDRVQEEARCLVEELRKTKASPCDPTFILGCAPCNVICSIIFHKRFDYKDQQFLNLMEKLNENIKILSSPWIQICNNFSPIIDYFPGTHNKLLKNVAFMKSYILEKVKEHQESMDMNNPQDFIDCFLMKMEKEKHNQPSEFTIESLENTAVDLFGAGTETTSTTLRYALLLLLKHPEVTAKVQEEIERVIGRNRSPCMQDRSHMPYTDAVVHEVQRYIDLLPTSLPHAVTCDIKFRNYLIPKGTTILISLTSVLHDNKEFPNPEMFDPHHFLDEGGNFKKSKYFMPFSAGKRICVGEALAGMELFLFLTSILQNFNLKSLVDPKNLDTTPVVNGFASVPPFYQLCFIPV
Experimental: as §1

[1] = Unbound fraction in brain (fu brain); format: in vitro ADME
Experimental: (§2) Multiparameter optimization (MPO) and brain/plasma concentration at steady-state (logBB) are widely used to predict BBB permeability. […] A detailed ADME/PK (absorption, distribution, metabolism, excretion and pharmacokinetics) profiling was conducted, and the results are listed in Table . […] These values meet the standards that BBB permeability is considered high if Papp A–B is ≥ 3.0 × 10^–6 cm/s and the efflux ratio is <3.0.

CYP1A2 = biological target: T1, CYP1A2 (Homo sapiens, UniProt P05177); test: CYP1A2 inhibition; format: in vitro ADME
T1 sequence (P05177 1-516): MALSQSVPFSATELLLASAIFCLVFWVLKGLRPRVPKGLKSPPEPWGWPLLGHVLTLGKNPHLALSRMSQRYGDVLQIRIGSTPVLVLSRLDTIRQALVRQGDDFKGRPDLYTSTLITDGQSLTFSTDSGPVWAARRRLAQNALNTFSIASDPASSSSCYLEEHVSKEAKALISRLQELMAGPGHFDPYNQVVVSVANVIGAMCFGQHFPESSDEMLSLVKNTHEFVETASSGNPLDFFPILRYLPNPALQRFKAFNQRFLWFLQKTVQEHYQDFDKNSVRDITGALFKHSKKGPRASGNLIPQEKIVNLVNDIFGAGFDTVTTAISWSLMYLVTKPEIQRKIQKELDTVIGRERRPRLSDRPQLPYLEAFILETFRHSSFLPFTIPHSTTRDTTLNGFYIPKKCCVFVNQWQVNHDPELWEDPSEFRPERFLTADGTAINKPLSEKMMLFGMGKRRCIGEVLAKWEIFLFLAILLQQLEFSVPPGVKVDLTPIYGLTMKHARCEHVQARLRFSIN
Experimental: as §1

human recombinant GSK3β = human recombinant GSK3β (Homo sapiens, UniProt P49841); test: GSK3β scintillation proximity assay (SPA), inhibition of kinase activity; format: biochemical; conditions: for Ki: GSK-3β, calculated via the Cheng-Prusoff equation; for IC50: SPA, 1 μM ATP
human recombinant GSK3β, sequence (P49841 whole entry): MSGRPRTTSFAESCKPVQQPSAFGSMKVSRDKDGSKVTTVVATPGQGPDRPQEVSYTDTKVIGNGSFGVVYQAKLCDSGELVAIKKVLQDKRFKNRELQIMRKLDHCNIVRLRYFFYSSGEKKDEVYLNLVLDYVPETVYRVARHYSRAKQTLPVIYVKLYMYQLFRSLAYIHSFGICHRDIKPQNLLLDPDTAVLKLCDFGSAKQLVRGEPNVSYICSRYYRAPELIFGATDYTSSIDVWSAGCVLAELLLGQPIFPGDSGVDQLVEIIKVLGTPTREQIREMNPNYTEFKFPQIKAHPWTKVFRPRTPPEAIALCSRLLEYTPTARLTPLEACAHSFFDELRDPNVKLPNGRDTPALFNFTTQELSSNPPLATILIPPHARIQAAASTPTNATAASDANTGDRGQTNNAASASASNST
Experimental: The inhibition of GSK3β activity is assessed using a scintillation proximity assay (SPA) in a 96-well microtiter plate format. The assay utilizes purified human recombinant GSK3β enzyme (∼1 nM active), [γ-^33P]-ATP (0.04 μCi), and a biotinylated peptide substrate (Biotin-[…](PO3H2)-PQL) at a final concentration of 2 μM. Reactions are carried out in an assay buffer containing MOPS, EDTA, β-mercaptoethanol, Brij 35, glycerol, and BSA, and preincubated for 10–15 min at room temperature. Inhibitor testing is conducted in duplicate using 10 different concentrations. The kinase reaction is initiated by adding ATP (1 μM final) in the presence of 50 mM Mg(Ac)2. After a 15 min incubation at room temperature, the reaction is terminated by adding a solution (25 μL) containing 5 mM EDTA, 50 μM ATP, 0.1% Triton X-100, and 10 mg/mL streptavidin-coated SPA beads, followed by the addition of distilled water (50 μL). After a 6-h incubation, bound radioactivity is measured using a MicroBeta Trilux liquid scintillation counter (1450 MicroBeta Trilux, Wallac). Data are analyzed using nonlinear regression with variable slope (GraphPad Prism or Excel Fit), and results are reported as Ki values calculated via the Cheng-Prusoff equation.

GSK-3 [2] = test: Radioligand saturation binding assay with tritiated ligands in hippocampal membranes; design: species or system Sprague–Dawley rat; conditions: tritiated ligand, hippocampus of SD rat brains
Experimental: The pharmacology and physicochemical properties of compounds 13a–13e are depicted in Table . To evaluate binding affinities, saturation binding assays using tritiated ligands [^3H]13a, [^3H]13c, [^3H]13d, [^3H]13e (Scheme S1) were performed using the hippocampal tissue of Sprague–Dawley (SD) rat brains. As depicted in Table A, total binding (TB), nonspecific binding (NSB), and specific binding (SB) of the respective tritiated ligands were measured with increasing concentrations of the radioligands. The dissociation constant (Kd) and capacity (B max) of each radioligand were calculated to confirm their binding affinity.
For membrane preparation, hippocampal tissue from adult rats (Sprague–Dawley) was dissected out, weighed, and frozen in 0.32 M sucrose at −70 °C. On the experiment day, the tissue was thawed, homogenized in 50 mM Tris, 5 mM EDTA (pH 7.4) and then centrifuged at 48 000 xg for 15 min at +4 °C. The pellet was diluted in binding buffer (50 mM Tris, 4 mM MgCl2, 1 mM EDTA pH 7.4) to a final concentration of 2.5 mg w.w./mL. Saturation binding experiments were performed in duplicate, with each tube containing 1 mg w.w. in 0.5 mL binding buffer and 0.1 – 17 nM (11–12 concentrations) of radioligand. Nonspecific binding was measured by adding 10 μM AR-A014418. The assays were incubated for 2–3 h at room temperature and terminated by quick filtration using Whatman GF/B filters pretreated with 0.3% polyethylenimine on a Brandel cell harvester. Radioactivity was measured with a Packard Tri-Carb 2900TR liquid scintillation counter, and data were processed by nonlinear regression analyses using PRISM 4.03.

[3] = Intrinsic clearance (CLint); format: in vitro ADME; conditions: cells (cell type not named); read-out: median CLint
CYP2D6 = CYP2D6 (Homo sapiens, UniProt P10635); test: CYP2D6 inhibition; format: in vitro ADME
CYP2D6, sequence (P10635 whole entry, species assumed): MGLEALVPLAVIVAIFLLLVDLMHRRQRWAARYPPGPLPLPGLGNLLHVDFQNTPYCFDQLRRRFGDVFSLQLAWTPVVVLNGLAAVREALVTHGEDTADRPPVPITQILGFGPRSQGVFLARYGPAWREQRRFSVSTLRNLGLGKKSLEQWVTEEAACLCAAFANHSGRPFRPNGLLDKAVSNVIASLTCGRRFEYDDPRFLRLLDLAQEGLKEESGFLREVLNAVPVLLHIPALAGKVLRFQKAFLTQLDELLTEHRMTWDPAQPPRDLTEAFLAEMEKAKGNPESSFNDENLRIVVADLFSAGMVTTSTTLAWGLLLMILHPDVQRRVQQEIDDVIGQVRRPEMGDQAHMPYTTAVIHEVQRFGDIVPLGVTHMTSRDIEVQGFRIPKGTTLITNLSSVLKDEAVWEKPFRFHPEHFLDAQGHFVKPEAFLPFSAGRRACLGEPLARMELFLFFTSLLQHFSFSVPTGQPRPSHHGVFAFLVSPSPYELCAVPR
Experimental: as §1

Solubility = format: physicochemical; conditions: in dry DMSO at pH = 7.4
Experimental: as §2

hERG channel = hERG channel (Homo sapiens, UniProt Q12809); test: hERG channel inhibition; conditions: human
hERG channel, sequence (Q12809 whole entry): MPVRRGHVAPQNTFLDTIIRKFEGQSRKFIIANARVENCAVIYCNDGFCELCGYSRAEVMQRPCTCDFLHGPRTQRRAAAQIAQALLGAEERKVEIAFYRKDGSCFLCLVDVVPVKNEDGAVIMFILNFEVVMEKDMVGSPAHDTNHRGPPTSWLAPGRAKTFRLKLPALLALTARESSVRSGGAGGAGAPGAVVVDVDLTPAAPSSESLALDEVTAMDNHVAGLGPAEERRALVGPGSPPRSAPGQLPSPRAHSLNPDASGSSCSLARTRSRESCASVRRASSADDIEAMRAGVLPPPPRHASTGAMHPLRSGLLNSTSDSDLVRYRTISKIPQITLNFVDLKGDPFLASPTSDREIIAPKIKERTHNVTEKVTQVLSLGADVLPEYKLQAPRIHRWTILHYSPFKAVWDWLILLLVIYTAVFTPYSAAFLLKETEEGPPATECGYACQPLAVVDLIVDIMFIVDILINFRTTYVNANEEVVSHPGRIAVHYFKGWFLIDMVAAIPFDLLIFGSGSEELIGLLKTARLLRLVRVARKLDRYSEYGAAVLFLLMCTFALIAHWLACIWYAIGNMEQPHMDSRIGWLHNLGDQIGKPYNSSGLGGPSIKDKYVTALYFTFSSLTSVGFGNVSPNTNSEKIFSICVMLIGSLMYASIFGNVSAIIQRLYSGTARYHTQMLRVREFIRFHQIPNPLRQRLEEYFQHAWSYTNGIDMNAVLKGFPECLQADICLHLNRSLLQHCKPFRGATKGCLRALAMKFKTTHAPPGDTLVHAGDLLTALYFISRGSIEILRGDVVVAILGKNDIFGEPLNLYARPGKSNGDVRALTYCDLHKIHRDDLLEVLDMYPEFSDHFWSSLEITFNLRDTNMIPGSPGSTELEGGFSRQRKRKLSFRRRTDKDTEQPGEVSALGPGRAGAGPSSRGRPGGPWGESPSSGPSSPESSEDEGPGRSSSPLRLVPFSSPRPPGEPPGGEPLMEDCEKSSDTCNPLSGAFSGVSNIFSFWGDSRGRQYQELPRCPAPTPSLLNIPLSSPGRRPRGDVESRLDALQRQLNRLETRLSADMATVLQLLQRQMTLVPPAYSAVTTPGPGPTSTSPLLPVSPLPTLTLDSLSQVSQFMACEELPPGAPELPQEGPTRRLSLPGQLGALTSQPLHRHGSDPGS

[4] = Apparent permeability (Papp A-B) and efflux ratio; format: in vitro ADME; conditions: for efflux ratio: not told, Papp B–A/Papp A–B
Experimental: as §2

GSK-3 [5] = conditions: literature value for earlier GSK-3 PET ligand; cited from earlier work
GSK-3 [6] = conditions: earlier reports, rodents and/or NHPs; cited from earlier work
GSK-3β = test: In vitro autoradiography on rat brain tissue sections; format: binding; conditions: for blocking of [^3H]13a–13e binding in autoradiography: co-incubation, blocker 3 μM
Experimental: In the next step, we performed in vitro autoradiography studies on rat brain tissue sections to investigate the binding selectivity and distribution of compounds [^3H]13a–13e (Figure ). […] These findings support the potential of this compound series for further development as GSK-3β-targeted neuroimaging probes.
In vitro autoradiography was conducted on 10 μm thick cry-cut tissue sections of rat tissue that had been thaw-mounted onto microscope slides. The brain sections were incubated in 50 mM Tris-HCl buffer at room temperature and then incubated with [^3H]-ligand for 30 min. The sections were rinsed three times for 10 min each in Tris buffer at 1 °C, followed by a quick rinse in deionized water at 1 °C, and then air-dried at room temperature with a fan. The radiolabeled sections and Amersham plastic tritium standards were then exposed to phosphoimager plates (Fuji BAS-TR2040) overnight. Blocking studies were conducted using a 1000-fold excess of the cold reference compounds, and validated GSK-3β inhibitors AR-A014418 and SB-216763. […] This micromolar concentration is consistent with established methods for GSK-3 radioligand autoradiography blocking experiments.

Protein binding (% free) = format: in vitro ADME; conditions: read-out: mean Prot binding (% free)
[7] = Pharmacokinetics: half-life and bioavailability; conditions: in vivo; for half-life: read-out: mean t 1/2 (converted)

CYP3A4, sequence (P08684 whole entry, species assumed, canonical isoform): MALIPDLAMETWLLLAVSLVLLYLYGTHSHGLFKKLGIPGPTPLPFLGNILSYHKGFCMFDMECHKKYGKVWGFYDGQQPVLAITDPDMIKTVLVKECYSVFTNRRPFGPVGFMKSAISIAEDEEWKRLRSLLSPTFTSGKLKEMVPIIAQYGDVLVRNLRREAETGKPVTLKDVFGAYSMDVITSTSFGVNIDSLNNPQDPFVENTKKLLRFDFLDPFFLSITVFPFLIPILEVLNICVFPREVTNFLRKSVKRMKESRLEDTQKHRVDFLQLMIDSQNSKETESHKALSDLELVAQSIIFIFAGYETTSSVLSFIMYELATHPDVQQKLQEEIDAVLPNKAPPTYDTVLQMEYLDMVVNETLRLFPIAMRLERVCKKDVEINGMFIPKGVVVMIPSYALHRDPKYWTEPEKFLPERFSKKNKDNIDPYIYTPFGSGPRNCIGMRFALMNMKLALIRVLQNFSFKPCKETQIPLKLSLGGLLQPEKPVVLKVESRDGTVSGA

Question: For `Cc1ncc(-c2nc(Nc3ccc(C(=O)N4CCCCC4)c(Cl)c3)ncc2F)n1C1CCOCC1` [13a], which IC50 (CYP3A4) is on record?
Answer: > 2000 nM

Question: And the IC50 (CYP2C9)?
Answer: > 2000 nM

Question: And the fraction unbound [1]?
Answer: 0.036

Question: What about the IC50 (CYP1A2) of the same compound?
Answer: > 2000 nM

Question: What about the Ki (human recombinant GSK3β) of the same compound?
Answer: 2.49 nM

Question: What about the IC50 (human recombinant GSK3β) of the same compound?
Answer: 3.31 nM

Question: What about the Kd (GSK-3 [2]) of the same compound?
Answer: 1.09 nM

Question: And the hepatocyte CLint [3]?
Answer: 34.2 µL/min/1e6 cells

Question: What about the IC50 (CYP2D6) of the same compound?
Answer: > 2000 nM

Question: And the solubility (Solubility)?
Answer: 234 µM (≈ 117 µg/mL)

Question: What about the IC50 (hERG channel) of the same compound?
Answer: 4.52 µM

Question: With `Cc1cc(Nc2ncc(F)c(-c3cnc(C)n3C3CCOCC3)n2)ccc1C(=O)N(C)C` [13c] as the compound, how does the fraction unbound [1] read?
Answer: 0.19

Question: And the “P app A-B” value [4]?
Answer: 16.2 × 10^–6 cm/s

Question: What about the efflux ratio [4] of the same compound?
Answer: 2.1

Question: And the Ki (human recombinant GSK3β)?
Answer: 4.48 nM

Question: And the IC50 (human recombinant GSK3β)?
Answer: 5.96 nM

Question: And the Kd (GSK-3 [2])?
Answer: 2.74 nM

Question: And the solubility (Solubility)?
Answer: > 400 µM

Question: With `Cc1nnc(-c2ccc3occ(-c4ccc(S[11CH3])cc4)c3c2)o1` [[^11C]3] as the compound, how does the IC50 (GSK-3 [5]) read?
Answer: 66 nM

Question: Which IC50 (GSK-3 [5]) does the source give for `CCn1cc(C2=C(c3cccc(OCC[18F])c3)C(=O)NC2=O)c2cc(F)ccc21` [[^18F]7] here?
Answer: 1.7 nM

Question: For `[11CH3]Oc1ccc(CNC(=O)Nc2ncc([N+](=O)[O-])s2)cc1` [[^11C]1, N-(4-methoxybenzyl)-N′-(5-nitro-1,3-thiazol-2-yl)urea], which “brain uptake / BBB penetration in PET studies” value (“brain uptake / BBB penetration” for short) (GSK-3 [6]) is on record?
Answer: […]

Question: What about the “blocking of [^3H]13a–13e binding in autoradiography” value (GSK-3β) of the same compound?
Answer: significantly reduced the radioactive signal in all the brain regions

Question: For `Cc1ncc(-c2nc(Nc3ccc(C(=O)N(C)C)c(Cl)c3)ncc2F)n1C1CCOCC1` [13b], which IC50 (CYP3A4) is on record?
Answer: > 2000 nM

Question: What about the IC50 (CYP2C9) of the same compound?
Answer: > 2000 nM

Question: And the fraction unbound (Protein binding (% free))?
Answer: 0.056

Question: And the bioavailability [7]?
Answer: 39.8%

Question: What about the half-life [7] of the same compound?
Answer: 139 min

Question: And the fraction unbound [1]?
Answer: 0.13

Question: And the “P app A-B” value [4]?
Answer: 22.7 × 10^–6 cm/s

Question: What about the efflux ratio [4] of the same compound?
Answer: 1.2

Question: What about the IC50 (CYP1A2) of the same compound?
Answer: > 2000 nM

Question: And the Ki (human recombinant GSK3β)?
Answer: 3.01 nM

Question: And the IC50 (human recombinant GSK3β)?
Answer: 4.01 nM

Question: And the hepatocyte CLint [3]?
Answer: 17.5 µL/min/1e6 cells

Question: What about the IC50 (CYP2D6) of the same compound?
Answer: > 2000 nM

Question: And the solubility (Solubility)?
Answer: 155 µM (≈ 71.1 µg/mL)

Question: What about the IC50 (hERG channel) of the same compound?
Answer: 18.8 µM

Question: For `[11CH3]N1CCN(S(=O)(=O)c2ccc(-c3cnc(N)c(C(=O)Nc4cccnc4)n3)cc2)CC1` [[^11C]2], which “brain uptake / BBB penetration” value (GSK-3 [6]) is on record?
Answer: poor brain uptake in rodents and nonhuman primates

Question: Which IC50 (CYP3A4) does the source give for `COCCN(C)C(=O)c1ccc(Nc2ncc(F)c(-c3cnc(C)n3C3CCOCC3)n2)cc1C` [13d] here?
Answer: > 2000 nM

Question: What about the IC50 (CYP2C9) of the same compound?
Answer: > 2000 nM

Question: What about the fraction unbound (Protein binding (% free)) of the same compound?
Answer: 0.11

Question: And the bioavailability [7]?
Answer: 32.9%

Question: What about the half-life [7] of the same compound?
Answer: 219 min

Question: What about the fraction unbound [1] of the same compound?
Answer: 0.26

Question: What about the “P app A-B” value [4] of the same compound?
Answer: 21.9 × 10^–6 cm/s

Question: What about the efflux ratio [4] of the same compound?
Answer: 0.7

Question: And the IC50 (CYP1A2)?
Answer: > 2000 nM

Question: And the “radioactive accumulation / distribution in autoradiography” value (GSK-3β; tritiated ligand, rat brain sections, baseline)?
Answer: lowest level of radioactive accumulation

Question: What about the Ki (human recombinant GSK3β) of the same compound?
Answer: 4.95 nM

Question: What about the IC50 (human recombinant GSK3β) of the same compound?
Answer: 6.61 nM

Question: What about the Kd (GSK-3 [2]) of the same compound?
Answer: 6.46 nM

Question: And the hepatocyte CLint [3]?
Answer: 15.4 µL/min/1e6 cells

Question: What about the IC50 (CYP2D6) of the same compound?
Answer: > 2000 nM

Question: What about the IC50 (hERG channel) of the same compound?
Answer: > 33 µM

Question: For `[11CH3]Oc1ccc(-c2ocnc2C(=O)NCCCn2cncn2)cc1Cl` [[^11C]8], which “brain uptake / BBB penetration” value (GSK-3 [6]) is on record?
Answer: promising brain uptake and binding specificity in NHPs

Question: What about the IC50 (GSK-3 [5]) of the same compound?
Answer: 2.1 nM

Question: Which results are given for `Cn1cc(C2=C(c3ccc(Cl)cc3Cl)C(=O)NC2=O)c2ccccc21` [[^11C]6, reference compound]?
Answer: brain uptake / BBB penetration in PET studies (GSK-3 [6]): first GSK-3 radioligand reported to penetrate the BBB in rodents and NHPs; blocking of [^3H]13a–13e binding in autoradiography (GSK-3β): significantly reduced the radioactive signal in all the brain regions

Question: Which IC50 (GSK-3 [5]) does the source give for `Cc1nnc(-c2ccc3occ(-c4ccc([S+]([11CH3])[O-])cc4)c3c2)o1` (centres unmarked) [[^11C]4] here?
Answer: 35 nM

Question: For `[11CH3]Oc1ccc2c(NC(=O)Nc3cccc(C(F)(F)F)c3)ccnc2c1` [[^11C]9], which Ki (GSK-3 [5]) is on record?
Answer: 0.6 nM

Question: Which IC50 (GSK-3 [5]) does the source give for `Cc1nnc(-c2ccc3occ(-c4ccc(S([11CH3])(=O)=O)cc4)c3c2)o1` [[^11C]5] here?
Answer: 42 nM
